Data set [1] deals with bronchial epithelial cells. In words: Uptake of vesicle-encapsulated 14C-methylated albumin by cells (radioactivity). Format: cell-based. To be noted: 14C-methylated albumin encapsulated in vesicles, compared with non-encapsulated albumin. Here is the method: Derivative 10 was made into vesicles according to Example 41. […] The same method was used to encapsulate ^14C-methylated albumin (purchased from Sigma Chemicals) by adding 0.2 mg of the tagged albumin. The vesicles were purified by filtration and the presence of radioactivity in the purified sample indicated encapsulation.

A short description of data set [2]: Vesicle size by TEM. Format: physicochemical. Also on record: unit not given here. To be noted: bilayer vesicles. The protocol: Two main methods were used to prepare the vesicles: In method (1), 100-200 μl of the amphiphilic derivative dissolved in methanol was injected into 2-4 ml of an aqueous solution which contained the compound to be encapsulated. The mixture was sonicated in a bath sonicator (Branson 2510) for a short (1,2,5,10 min) or long (60 min) period, depending on the desired vesicle size (dozen or hundred nanometer) and uniformity. In method (2), the amphiphilic derivative dissolved in methanol (250-1000 μl) was added to a 50-ml round-bottom flask, the solvent was removed under reduced pressure by a rotary evaporator and a thin oily film was formed on the flask bottom. An aqueous solution containing the compound desired to encapsulate (1-4 ml) was added to the flask and the mixture was sonicated in a bath sonicator for 1-5 min at 60° C.
TEM (transmission electron microscopy) experiments were carried out using negative staining technique, employing saturated uranyl acetate solution (after centrifuge). The grid was immersed in the vesicle solution for 1.5 minutes and then was stained in the uranyl acetate solution for 1.5 min. The grid (300 mesh copper Formvar/carbon) was then dried at room temperature on filter paper. […]
Derivative 10 was made into vesicles according to Example 41. […] The vesicles were purified by filtration and the presence of radioactivity in the purified sample indicated encapsulation.

Data set [3] relates to bronchial epithelial cells. In words: Uptake of complexed DNA plasmid by cells (confocal microscope). To be noted: DNA plasmid complexed with the amphiphile, compared to non-complexed DNA. Format: cell-based. Here is the method: Purified Derivative 4 was used to complex with a DNA plasmid (purchased from Sigma Chemicals, 5 ng/microliter, stained in FITC; ULSIS Alexa Fluor® 488 Nucleic acid labeling kit) or rhodamine. The complexation was achieved by mixing the amphiphilic Derivative 4 (200 microliters containing […] of the compound) with […] of the DNA sample and letting it shake gently for a short period of time. The mixture is not sonicated to prevent vesicle formation in which the DNA is encapsulated. The sample was then incubated in a culture containing bronchial epithelial cells.

SMILES strings stand for the structures.

With `CCCCCCCCCCCC[N+](C)(C)CC(=O)OC(CCCCC)C(O)C/C=C/CC(=O)NCCNC(=O)C/C=C/CC(O)C(CCCCC)OC(=O)C[N+](C)(C)CCCCCCCCCCCC` (stereo not drawn) [Derivative 10], the “uptake of the albumin by the cells” value in data set [1] was “significantly greater uptake of the albumin”. Also, the vesicle size in data set [2] is 350.

With `CCCCCC(OC(=O)CN(CCCN)CCCCN)C(O)CCCCC(=O)OC` (stereo not drawn) [Derivative 4], in data set [3], the “uptake of DNA by the cells” value was “significantly greater uptake of DNA”.

(Values after patent US7939562B2, “Amphiphilic derivatives for the production of vesicles, micelles and complexants, and precursors thereof” (Ben-Gurion University of The Negev Research and Development …, priority 2001, dated 2011).)
